According to ChEMBL document CHEMBL2380214, “Novel hybrids of (phenylsulfonyl)furoxan and anilinopyrimidine as potent and selective epidermal growth factor receptor inhibitors for intervention of non-small-cell lung cancer” (J Med Chem, 2013):
Calls of active or inactive are those of the source. No cut-off for these calls is given here.

Columns and labels:
[1] = Selectivity ratio of IC50 for human A549 cells harboring wild type EGFR and k-RAS mutation to IC50 for gefitinib-sensitive human HCC827 cells harboring EGFR […] deletion mutant; format: ADME, cell-based
[2] = tested on: Epidermal growth factor receptor (Homo sapiens), P00533 [L858R,T790M]; test: Inhibition of EGFR L858R/[…] double mutant phosphorylation in gefitinib-resistant human NCI-H1975 cells assessed as inhibition of AKT phosphorylation after 24 hrs by Western blot analysis; format: cell-based
NCI-H1975 [3] = test: Induction of NO production in human NCI-H1975 cells harboring EGFR L858R/[…] double mutant assessed as increase in nitrite level at 100 uM after 150 mins by Griess assay; format: functional, cell-based
cells [4] = format: ADME, cell-based; conditions: Homo sapiens, BEAS-2B, 72 h
Description: Cytotoxicity against human BEAS2B cells harboring wild type EGFR assessed as growth inhibition after 72 hrs by MTT assay

Mus musculus = test: Toxicity in athymic BALB/c nude mouse xenografted with gefitinib-resistant human NCI-H1975 cells harboring EGFR L858R/[…] double mutant assessed as body mass loss at 14 mg/kg, ip qd administered for 14 days measured every other day during compound administration relative to vehicle-treated control; format: organism-based; parameters: dose 14 mg/kg, route intraperitoneal; conditions: in vivo, 336 h
[5] = biological target: Epidermal growth factor receptor (Homo sapiens, UniProt P00533)
Description: Inhibition of wild type EGFR (unknown origin) after 1.5 hrs by FRET-based Z'Lyte assay

NCI-H1975 [6] = test: Cytotoxicity against gefitinib-resistant human NCI-H1975 cells harboring EGFR L858R/[…] double mutant assessed as growth inhibition after 72 hrs by MTT assay; format: functional, cell-based; conditions: NCI-H1975, 72 h
[7] = Selectivity ratio of IC50 for human A431 cells overexpressing wild type EGFR to IC50 for gefitinib-sensitive human HCC827 cells harboring EGFR […] deletion mutant; format: ADME, cell-based
A549 [8] = test: cells; format: ADME, cell-based; conditions: Homo sapiens, A549, 72 h
Description: Cytotoxicity against human A549 cells harboring wild type EGFR and k-RAS mutation assessed as growth inhibition after 72 hrs by MTT assay

NCI-H1975 [9] = test: Cytotoxicity against gefitinib-resistant human NCI-H1975 cells harboring EGFR L858R/[…] double mutant assessed as growth inhibition at 1 uM after 24 hrs by MTT assay in presence of hemoglobin; format: functional, cell-based
[10] = Selectivity ratio of IC50 for human 16HBE14o- cells harboring wild type EGFR to IC50 for gefitinib-sensitive human HCC827 cells harboring EGFR […] deletion mutant; format: ADME, cell-based; conditions: read-out: Ratio IC50
A-431 [11] = test: Ratio of compound IC50 to WZ4002 IC50 for human A431 cells overexpressing wild type EGFR; format: ADME, cell-based
cells [12] = format: ADME, cell-based; conditions: Homo sapiens, 16HBE14o-, 72 h
Description: Cytotoxicity against human 16HBE14o- cells harboring wild type EGFR assessed as growth inhibition after 72 hrs by MTT assay

[13] = Selectivity ratio of IC50 for human BEAS2B cells harboring wild type EGFR to IC50 for gefitinib-resistant human NCI-H1975 cells harboring EGFR L858R/[…] double mutant; format: ADME, cell-based; conditions: read-out: Ratio IC50
NCI-H1975 [14] = test: (§1) Antitumor activity against gefitinib-resistant human NCI-H1975 cells harboring EGFR L858R/[…] double mutant xenografted in athymic BALB/c nude mouse assessed as tumor growth inhibition at 14 mg/kg, ip qd administered for 14 days measured every other day during compound administration relative to vehicle-treated control; format: functional; conditions: 336 h, route intraperitoneal, read-out: TGI
NCI-H1975 [15] = test: Induction of apoptosis in gefitinib-resistant human NCI-H1975 cells harboring EGFR L858R/[…] double mutant after 24 hrs by annexin-V/7-AAD staining-based FACS flow cytometric analysis; format: functional, cell-based
[16] = Ratio of compound IC50 to WZ4002 IC50 for human BEAS2B cells harboring wild type EGFR; format: ADME, cell-based; conditions: read-out: Ratio IC50
[17] = biological target: Epidermal growth factor receptor (Homo sapiens, UniProt P00533, L858R/T790M); format: protein assay
Description: Inhibition of EGFR L858R/T790M double mutant (unknown origin) after 1.5 hrs by FRET-based Z'Lyte assay

[18] = tested on: Epidermal growth factor receptor (Homo sapiens), P00533 [L858R,T790M]; test: Inhibition of EGFR L858R/[…] double mutant phosphorylation in gefitinib-resistant human NCI-H1975 cells after 24 hrs by Western blot analysis; format: cell-based
A549 [19] = test: Ratio of compound IC50 to WZ4002 IC50 for human A549 cells harboring wild type EGFR and k-RAS mutation; format: ADME, cell-based
cells [20] = format: functional, cell-based; conditions: Homo sapiens, HCC827, 72 h
[21] = biological target: Epidermal growth factor receptor (Homo sapiens, UniProt P00533, L858R); format: protein assay
Description: Inhibition of EGFR L858R mutant (unknown origin) after 1.5 hrs by FRET-based Z'Lyte assay

HCC827 [22] = test: Cytotoxicity against gefitinib-sensitive human HCC827 cells harboring EGFR […] deletion mutant assessed as growth inhibition at 1 uM after 24 hrs by MTT assay in presence of hemoglobin; format: functional, cell-based
[23] = Induction of apoptosis in EGFR-independent human H460 cells at 1 to 5 uM after 24 hrs by annexin-V/7-AAD staining-based FACS flow cytometric analysis; format: cell-based; conditions: nci-h460, 24 h
HCC827 [24] = test: Induction of apoptosis in gefitinib-sensitive human HCC827 cells harboring EGFR […] deletion mutant after 24 hrs by annexin-V/7-AAD staining-based FACS flow cytometric analysis; format: functional, cell-based
[25] = Induction of NO production in human 16HBE14o- cells harboring wild type EGFR assessed as increase in nitrite level at 100 uM after 150 mins by Griess assay; format: cell-based; conditions: 2.5 h
A-431 [26] = test: cells; format: ADME, cell-based; conditions: Homo sapiens, A-431, 72 h
Description: Cytotoxicity against human A431 cells overexpressing wild type EGFR assessed as growth inhibition after 72 hrs by MTT assay

[27] = Selectivity ratio of IC50 for human A549 cells harboring wild type EGFR and k-RAS mutation to IC50 for gefitinib-resistant human NCI-H1975 cells harboring EGFR L858R/[…] double mutant; format: ADME, cell-based
NCI-H1975 [28] = test: Inhibition of NFkappaB phosphorylation in gefitinib-resistant human NCI-H1975 cells harboring EGFR L858R/[…] double mutant at 0.01 to 1 uM after 24 hrs by Western blot analysis; format: cell-based
[29] = Selectivity ratio of IC50 for human BEAS2B cells harboring wild type EGFR to IC50 for gefitinib-sensitive human HCC827 cells harboring EGFR […] deletion mutant; format: ADME, cell-based; conditions: read-out: Ratio IC50
[30] = Selectivity ratio of IC50 for human 16HBE14o- cells harboring wild type EGFR to IC50 for gefitinib-resistant human NCI-H1975 cells harboring EGFR L858R/[…] double mutant; format: ADME, cell-based; conditions: read-out: Ratio IC50
[31] = Selectivity ratio of IC50 for human A431 cells overexpressing wild type EGFR to IC50 for gefitinib-resistant human NCI-H1975 cells harboring EGFR L858R/[…] double mutant; format: ADME, cell-based
[32] = tested on: Epidermal growth factor receptor (Homo sapiens), P00533 [L858R,T790M]; test: Inhibition of EGFR L858R/[…] double mutant phosphorylation in gefitinib-resistant human NCI-H1975 cells assessed as inhibition of ERK phosphorylation after 24 hrs by Western blot analysis; format: cell-based
[33] = tested on: Epidermal growth factor receptor (Homo sapiens), P00533 [L858R,T790M]; conditions: NCI-H1975, 0.01 to 1 uM
NCI-H1975 [34] = test: as §1, with “at 8” for “at 14”; format: functional; conditions: 336 h, route intraperitoneal, read-out: TGI
[35] = tested on: Epidermal growth factor receptor (Homo sapiens), P00533 [L858R,T790M]; conditions: NCI-H1975, 0.01 to 1 uM; remark: listed apart in the source
[36] = tested on: Epidermal growth factor receptor (Homo sapiens), P00533 [L858R,T790M]; conditions: NCI-H1975, 0.01 to 1 uM; remark: listed apart in the source

Sequence of Epidermal growth factor receptor (Homo sapiens), P00533 [L858R,T790M] (P00533 whole entry T790M/L858R, looked up): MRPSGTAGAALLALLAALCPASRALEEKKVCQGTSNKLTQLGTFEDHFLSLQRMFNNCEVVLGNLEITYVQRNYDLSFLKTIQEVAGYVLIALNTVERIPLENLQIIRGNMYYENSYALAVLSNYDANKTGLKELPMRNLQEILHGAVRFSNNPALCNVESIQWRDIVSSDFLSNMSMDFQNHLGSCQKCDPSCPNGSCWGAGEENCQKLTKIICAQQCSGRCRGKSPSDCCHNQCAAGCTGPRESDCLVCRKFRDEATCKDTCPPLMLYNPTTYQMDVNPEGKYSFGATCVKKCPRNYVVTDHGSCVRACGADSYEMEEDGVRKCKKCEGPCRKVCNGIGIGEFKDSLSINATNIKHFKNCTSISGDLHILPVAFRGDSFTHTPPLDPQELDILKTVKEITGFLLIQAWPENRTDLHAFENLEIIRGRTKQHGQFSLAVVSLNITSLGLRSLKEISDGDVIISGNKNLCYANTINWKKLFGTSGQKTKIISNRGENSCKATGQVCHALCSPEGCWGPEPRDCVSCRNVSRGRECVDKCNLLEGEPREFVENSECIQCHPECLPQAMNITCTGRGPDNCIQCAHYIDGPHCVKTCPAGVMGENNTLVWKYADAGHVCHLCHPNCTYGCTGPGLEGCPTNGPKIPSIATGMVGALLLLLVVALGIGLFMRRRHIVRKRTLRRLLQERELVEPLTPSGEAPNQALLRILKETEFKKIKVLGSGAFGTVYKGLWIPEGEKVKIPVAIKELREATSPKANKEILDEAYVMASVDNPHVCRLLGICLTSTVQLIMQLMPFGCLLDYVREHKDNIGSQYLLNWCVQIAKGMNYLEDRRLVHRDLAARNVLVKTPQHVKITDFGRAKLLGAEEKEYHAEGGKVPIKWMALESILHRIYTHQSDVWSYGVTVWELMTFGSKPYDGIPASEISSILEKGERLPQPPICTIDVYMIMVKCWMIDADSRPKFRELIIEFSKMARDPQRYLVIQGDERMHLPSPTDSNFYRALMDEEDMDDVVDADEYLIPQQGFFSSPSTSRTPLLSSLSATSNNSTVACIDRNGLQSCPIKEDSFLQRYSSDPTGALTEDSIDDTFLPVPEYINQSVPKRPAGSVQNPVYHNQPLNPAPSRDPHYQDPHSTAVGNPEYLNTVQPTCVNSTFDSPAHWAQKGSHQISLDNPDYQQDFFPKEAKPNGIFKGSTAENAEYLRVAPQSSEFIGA
Sequence of Epidermal growth factor receptor (Homo sapiens, UniProt P00533) (P00533 whole entry): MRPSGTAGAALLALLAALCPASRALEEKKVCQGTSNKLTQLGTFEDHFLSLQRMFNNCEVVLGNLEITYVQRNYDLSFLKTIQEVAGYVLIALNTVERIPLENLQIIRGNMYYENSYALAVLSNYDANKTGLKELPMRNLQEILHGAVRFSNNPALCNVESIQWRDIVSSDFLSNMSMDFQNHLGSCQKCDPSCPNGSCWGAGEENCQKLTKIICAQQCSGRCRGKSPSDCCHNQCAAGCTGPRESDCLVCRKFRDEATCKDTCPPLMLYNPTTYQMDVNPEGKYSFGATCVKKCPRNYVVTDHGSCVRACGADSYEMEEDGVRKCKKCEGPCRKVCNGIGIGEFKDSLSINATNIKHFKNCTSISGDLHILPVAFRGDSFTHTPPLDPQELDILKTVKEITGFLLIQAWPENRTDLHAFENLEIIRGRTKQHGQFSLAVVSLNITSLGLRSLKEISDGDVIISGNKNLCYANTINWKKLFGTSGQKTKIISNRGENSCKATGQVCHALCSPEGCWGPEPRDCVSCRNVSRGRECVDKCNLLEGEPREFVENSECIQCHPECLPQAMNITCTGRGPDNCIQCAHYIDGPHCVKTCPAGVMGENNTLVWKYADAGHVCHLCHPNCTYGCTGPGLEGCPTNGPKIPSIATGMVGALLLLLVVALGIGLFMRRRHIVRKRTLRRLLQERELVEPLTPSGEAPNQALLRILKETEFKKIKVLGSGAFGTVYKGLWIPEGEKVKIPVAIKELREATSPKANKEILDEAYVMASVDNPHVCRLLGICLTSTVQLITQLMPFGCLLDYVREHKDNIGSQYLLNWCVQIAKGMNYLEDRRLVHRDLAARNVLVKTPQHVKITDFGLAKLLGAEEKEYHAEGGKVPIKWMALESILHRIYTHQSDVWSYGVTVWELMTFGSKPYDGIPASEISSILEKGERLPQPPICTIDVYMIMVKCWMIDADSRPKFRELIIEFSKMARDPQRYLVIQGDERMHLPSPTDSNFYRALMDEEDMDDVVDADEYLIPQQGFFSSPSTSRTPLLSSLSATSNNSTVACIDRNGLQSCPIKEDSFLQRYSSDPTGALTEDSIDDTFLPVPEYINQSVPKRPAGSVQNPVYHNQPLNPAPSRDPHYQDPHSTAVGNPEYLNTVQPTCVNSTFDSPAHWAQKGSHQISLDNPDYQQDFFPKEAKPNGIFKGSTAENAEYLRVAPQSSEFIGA
Sequence of Epidermal growth factor receptor (Homo sapiens, UniProt P00533, L858R) (P00533 25-1210 L858R limits assumed): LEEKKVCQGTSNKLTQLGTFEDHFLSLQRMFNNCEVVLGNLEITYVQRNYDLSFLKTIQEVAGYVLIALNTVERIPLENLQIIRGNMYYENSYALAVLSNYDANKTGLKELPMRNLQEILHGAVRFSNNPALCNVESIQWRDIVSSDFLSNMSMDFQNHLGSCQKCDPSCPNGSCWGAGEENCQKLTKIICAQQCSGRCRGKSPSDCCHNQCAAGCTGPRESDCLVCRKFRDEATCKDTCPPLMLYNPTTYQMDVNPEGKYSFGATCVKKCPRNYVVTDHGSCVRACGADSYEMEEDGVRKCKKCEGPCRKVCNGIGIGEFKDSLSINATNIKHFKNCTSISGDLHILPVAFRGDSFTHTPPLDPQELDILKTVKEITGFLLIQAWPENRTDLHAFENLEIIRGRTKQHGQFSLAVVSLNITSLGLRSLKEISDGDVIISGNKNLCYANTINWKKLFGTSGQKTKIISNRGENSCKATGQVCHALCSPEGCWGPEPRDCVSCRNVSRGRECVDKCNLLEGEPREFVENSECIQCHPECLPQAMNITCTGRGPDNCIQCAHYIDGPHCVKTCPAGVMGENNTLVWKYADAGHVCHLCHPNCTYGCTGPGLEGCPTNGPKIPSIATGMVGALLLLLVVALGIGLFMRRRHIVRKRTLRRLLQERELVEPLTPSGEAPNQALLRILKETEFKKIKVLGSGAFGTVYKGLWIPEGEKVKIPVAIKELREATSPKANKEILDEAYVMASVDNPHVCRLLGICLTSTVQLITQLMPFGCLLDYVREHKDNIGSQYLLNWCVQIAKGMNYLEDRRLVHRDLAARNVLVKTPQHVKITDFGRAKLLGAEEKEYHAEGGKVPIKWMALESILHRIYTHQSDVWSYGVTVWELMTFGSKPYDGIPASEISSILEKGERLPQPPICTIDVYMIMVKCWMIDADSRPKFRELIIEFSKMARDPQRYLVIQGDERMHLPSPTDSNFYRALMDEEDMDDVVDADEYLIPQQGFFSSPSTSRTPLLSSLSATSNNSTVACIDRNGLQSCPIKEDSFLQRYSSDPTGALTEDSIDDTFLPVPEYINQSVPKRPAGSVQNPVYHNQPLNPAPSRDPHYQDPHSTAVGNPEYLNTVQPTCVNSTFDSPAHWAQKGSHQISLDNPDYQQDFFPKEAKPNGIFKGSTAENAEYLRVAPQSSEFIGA
Sequence of Epidermal growth factor receptor (Homo sapiens, UniProt P00533, L858R/T790M) (P00533 25-1210 T790M/L858R limits assumed): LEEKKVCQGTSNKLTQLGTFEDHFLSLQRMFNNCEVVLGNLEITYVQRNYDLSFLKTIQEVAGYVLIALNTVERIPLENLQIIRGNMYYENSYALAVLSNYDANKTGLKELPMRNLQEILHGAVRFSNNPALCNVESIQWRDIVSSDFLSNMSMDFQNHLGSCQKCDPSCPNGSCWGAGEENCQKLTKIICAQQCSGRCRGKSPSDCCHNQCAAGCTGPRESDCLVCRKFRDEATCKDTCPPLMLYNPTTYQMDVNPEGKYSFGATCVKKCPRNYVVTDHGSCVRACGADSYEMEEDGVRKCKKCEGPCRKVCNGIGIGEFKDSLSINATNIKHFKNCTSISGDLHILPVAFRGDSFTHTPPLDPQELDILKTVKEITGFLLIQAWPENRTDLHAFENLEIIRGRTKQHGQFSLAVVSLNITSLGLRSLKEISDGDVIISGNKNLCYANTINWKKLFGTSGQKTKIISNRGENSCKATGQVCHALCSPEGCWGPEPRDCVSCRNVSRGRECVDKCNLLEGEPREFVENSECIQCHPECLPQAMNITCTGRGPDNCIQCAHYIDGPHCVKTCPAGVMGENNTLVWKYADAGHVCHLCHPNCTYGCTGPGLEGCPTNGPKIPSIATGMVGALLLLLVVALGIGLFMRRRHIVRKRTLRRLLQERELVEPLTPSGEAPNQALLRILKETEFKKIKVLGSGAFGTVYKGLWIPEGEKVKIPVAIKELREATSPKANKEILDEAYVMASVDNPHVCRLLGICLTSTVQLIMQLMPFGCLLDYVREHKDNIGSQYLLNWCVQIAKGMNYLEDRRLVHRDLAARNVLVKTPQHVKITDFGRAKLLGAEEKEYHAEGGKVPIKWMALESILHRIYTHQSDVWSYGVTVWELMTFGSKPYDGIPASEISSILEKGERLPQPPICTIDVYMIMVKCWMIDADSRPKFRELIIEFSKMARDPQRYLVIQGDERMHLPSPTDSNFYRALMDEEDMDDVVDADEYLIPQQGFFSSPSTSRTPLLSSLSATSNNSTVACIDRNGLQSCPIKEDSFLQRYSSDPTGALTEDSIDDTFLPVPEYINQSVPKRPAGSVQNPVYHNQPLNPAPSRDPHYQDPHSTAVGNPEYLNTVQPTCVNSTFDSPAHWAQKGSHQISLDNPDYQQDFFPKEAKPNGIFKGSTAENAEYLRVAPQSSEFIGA

Row | IC50 (cells [4]) | IC50 [5] | IC50 (A549 [8]) | IC50 (cells [12]) | IC50 [17] | IC50 (cells [20]) | IC50 [21] | IC50 (A-431 [26]) | SMILES | Ratio IC50 [1] | Activity (NCI-H1975 [3]) | IC50 (NCI-H1975 [6]) | Ratio IC50 [7] | selectivity ratio [10] | selectivity ratio [13] | Activity (NCI-H1975 [15]) | Activity [23] | Activity (HCC827 [24]) | Activity [25] | Ratio IC50 [27] | inhibition (NCI-H1975 [28]) | further results
1 | 44600 nM | 292 nM | > 50000 nM | 23900 nM | 47 nM | 7 nM | 305 nM | 5670 nM | C=CC(=O)Nc1cccc(Oc2nc(Nc3ccc(N4CCN(CC(=O)OCCCCCCOc5no[n+]([O-])c5S(=O)(=O)c5ccccc5)CC4)cc3OC)ncc2Cl)c1 | 60 | Active | 29 nM | 60 | 40 | 40 | Dose-dependent effect | Non-toxic | Dose-dependent effect | Non-toxic | 60 | Active | inhibition [2]: Dose-dependent effect; Activity (Mus musculus): Non-toxic; growth inhibition (GI) (NCI-H1975 [9]): inactive; Ratio IC50 (A-431 [11]): 5; inhibition in vivo at 14 mg/kg (NCI-H1975 [14]): 60%; selectivity ratio [16]: 5; inhibition [18]: Dose-dependent effect; Ratio IC50 (A549 [19]): 5; growth inhibition (GI) (HCC827 [22]): inactive; selectivity ratio [29]: 40; selectivity ratio [30]: 40; Ratio IC50 [31]: 60; inhibition [32]: Dose-dependent effect
2 | 1810 nM |  | 2100 nM |  |  | 8 nM |  |  | C=CC(=O)Nc1cccc(Oc2nc(Nc3ccc(N4CCN(C)CC4)cc3OC)ncc2Cl)c1 |  | inactive | 46 nM |  |  |  | Dose-dependent effect | Non-toxic | Dose-dependent effect | Non-toxic |  | inactive | inhibition [33]: Active; inhibition in vivo at 8 mg/kg (NCI-H1975 [34]): 69%; inhibition [35]: Active; inhibition [36]: Active
3 | 2560 nM | 174 nM | 17200 nM | 4150 nM | 38 nM | 6 nM | 189 nM | 4070 nM | C=CC(=O)Nc1cccc(Oc2nc(Nc3ccc(N4CCN(CC(=O)OCCCCOc5no[n+]([O-])c5S(=O)(=O)c5ccccc5)CC4)cc3OC)ncc2Cl)c1 | 60 |  | 69 nM | 60 | 40 | 40 |  |  |  |  | 60 |  | selectivity ratio [29]: 40; selectivity ratio [30]: 40; Ratio IC50 [31]: 60
